# Source: ChEMBL document CHEMBL2150933 (J Med Chem, 2012)
# Active and inactive are the calls of the source. No cut-off for these calls is given here.
# Assays:
# SK-MEL-2 [1] = experiment: Antitumor activity against human SK-MEL-2 cells xenografted in athymic nu/nu Harlan mouse assessed as tumor growth inhibition at 8 mg/kg, ip administered Q4D for 3 days relative to control; type: functional, organism-based; parameters: dose 8 mg/kg
# BXPC-3 = experiment: Cytotoxicity against human BxPC3 cells after 72 hrs by MTT assay; type: functional; conditions: BXPC-3, 72 h
# [2] = Cytotoxicity against human 786-O cells after 48 hrs by SRB assay; type: functional; conditions: 786-0, 48 h
# A549 [3] = experiment: Cytotoxicity against human A549 cells after 72 hrs by MTT assay; type: functional; conditions: A549, 72 h
# COLO 205 [4] = experiment: Cytotoxicity against human COLO205 cells after 48 hrs by SRB assay; type: functional; conditions: COLO 205, 48 h
# MDA-MB-231 = experiment: Cytotoxicity against human MDA-MB-231 cells after 48 hrs by SRB assay; type: functional; conditions: MDA-MB-231, 48 h
# A549 [5] = experiment: Cytotoxicity against human A549 cells after 48 hrs by SRB assay; type: functional; conditions: A549, 48 h, read-out: pGI50 (converted)
# COLO 205 [6] = experiment: Cytotoxicity against human COLO205 cells after 72 hrs by MTT assay; type: functional; conditions: COLO 205, 72 h
# NCI-H226 = experiment: Cytotoxicity against human NCI-H226 cells after 48 hrs by SRB assay; type: functional; conditions: NCI-H226, 48 h
# Hs-578T = experiment: Cytotoxicity against human Hs578T cells after 48 hrs by SRB assay; type: functional
# UACC-257 = experiment: Cytotoxicity against human UACC257 cells after 48 hrs by SRB assay; type: functional; conditions: UACC-257, 48 h
# RXF 393 = experiment: Cytotoxicity against human RXF393 cells after 48 hrs by SRB assay; type: functional; conditions: RXF 393, 48 h
# UACC-62 = experiment: Cytotoxicity against human UACC62 cells after 48 hrs by SRB assay; type: functional; conditions: UACC-62, 48 h
# IGROV-1 = experiment: Cytotoxicity against human IGROV1 cells after 48 hrs by SRB assay; type: functional; conditions: IGROV-1, 48 h, read-out: pGI50 (converted)
# NCI-H23 = experiment: Cytotoxicity against human NCI-H23 cells after 48 hrs by SRB assay; type: functional; conditions: NCI-H23, 48 h
# HL-60 = experiment: Cytotoxicity against human HL60 cells after 48 hrs by SRB assay; type: functional; conditions: HL-60, 48 h
# HOP-92 = experiment: Cytotoxicity against human HOP92 cells after 48 hrs by SRB assay; type: functional; conditions: HOP-92, 48 h
# MDA-MB-468 = experiment: Cytotoxicity against human MDA-MB-468 cells after 48 hrs by SRB assay; type: functional; conditions: MDA-MB-468, 48 h
# HCT-116 = experiment: Cytotoxicity against human HCT116 cells after 48 hrs by SRB assay; type: functional; conditions: HCT-116, 48 h
# SW-620 = experiment: Cytotoxicity against human SW620 cells after 48 hrs by SRB assay; type: functional; conditions: SW-620, 48 h
# PC-3 = experiment: Cytotoxicity against human PC3 cells after 48 hrs by SRB assay; type: functional; conditions: PC-3, 48 h
# M14 = experiment: Cytotoxicity against human M14 cells after 48 hrs by SRB assay; type: functional; conditions: M14, 48 h
# SK-MEL-28 = experiment: Cytotoxicity against human SK-MEL-28 cells after 48 hrs by SRB assay; type: functional; conditions: SK-MEL-28, 48 h
# NCI-H522 = experiment: Cytotoxicity against human NCI-H522 cells after 48 hrs by SRB assay; type: functional; conditions: NCI-H522, 48 h
# U-251 = experiment: Cytotoxicity against human U251 cells after 48 hrs by SRB assay; type: functional; conditions: U-251, 48 h, read-out: pGI50 (converted)
# SK-MEL-5 = experiment: Cytotoxicity against human SK-MEL-5 cells after 48 hrs by SRB assay; type: functional; conditions: SK-MEL-5, 48 h, read-out: pGI50 (converted)
# Malme-3M = experiment: Cytotoxicity against human MALME-3M cells after 48 hrs by SRB assay; type: functional
# SNB-19 = experiment: Cytotoxicity against human SNB19 cells after 48 hrs by SRB assay; type: functional; conditions: SNB-19, 48 h
# SN12C = experiment: Cytotoxicity against human SN12C cells after 48 hrs by SRB assay; type: functional
# SK-MEL-2 [7] = experiment: Cytotoxicity against human SK-MEL-2 cells after 48 hrs by SRB assay; type: functional; conditions: SK-MEL-2, 48 h
# ACHN = experiment: Cytotoxicity against human ACHN cells after 48 hrs by SRB assay; type: functional
# RPMI-8226 = experiment: Cytotoxicity against human RPMI8226 cells after 48 hrs by SRB assay; type: functional; conditions: RPMI-8226, 48 h
# CAKI-1 = experiment: Cytotoxicity against human Caki1 cells after 48 hrs by SRB assay; type: functional; conditions: CAKI-1, 48 h
# MCF7 = experiment: Cytotoxicity against human MCF7 cells after 48 hrs by SRB assay; type: functional; conditions: MCF7, 48 h
# HCT-15 = experiment: Cytotoxicity against human HCT15 cells after 48 hrs by SRB assay; type: functional; conditions: HCT-15, 48 h
# BT-549 = experiment: Cytotoxicity against human BT549 cells after 48 hrs by SRB assay; type: functional; conditions: BT-549, 48 h
# OVCAR-5 = experiment: Cytotoxicity against human OVCAR5 cells after 48 hrs by SRB assay; type: functional; conditions: OVCAR-5, 48 h
# TK-10 = experiment: Cytotoxicity against human TK10 cells after 48 hrs by SRB assay; type: functional; conditions: TK-10, 48 h
# A498 = experiment: Cytotoxicity against human A498 cells after 48 hrs by SRB assay; type: functional; conditions: A498, 48 h
# CCRF-CEM = experiment: Cytotoxicity against human CCRF-CEM cells after 48 hrs by SRB assay; type: functional
# HT-29 = experiment: Cytotoxicity against human HT-29 cells after 48 hrs by SRB assay; type: functional; conditions: HT-29, 48 h
# LOX IMVI = experiment: Cytotoxicity against human LOXIMVI cells after 48 hrs by SRB assay; type: functional
# [8] = Cytotoxicity against human NCI-ADR-RES cells after 48 hrs by SRB assay; type: functional
# [9] = Toxicity in iv dosed CD1 mouse administered as single dose; type: organism-based; conditions: in vivo
# OVCAR-4 = experiment: Cytotoxicity against human OVCAR4 cells after 48 hrs by SRB assay; type: functional; conditions: OVCAR-4, 48 h
# OVCAR-8 = experiment: Cytotoxicity against human OVCAR8 cells after 48 hrs by SRB assay; type: functional; conditions: OVCAR-8, 48 h, read-out: pGI50 (converted)
# SF-539 = experiment: Cytotoxicity against human SF539 cells after 48 hrs by SRB assay; type: functional; conditions: SF-539, 48 h
# SR = experiment: Cytotoxicity against human SR cells after 48 hrs by SRB assay; type: functional
# KM12 = experiment: Cytotoxicity against human KM12 cells after 48 hrs by SRB assay; type: functional; conditions: KM12, 48 h
# SNB-75 = experiment: Cytotoxicity against human SNB75 cells after 48 hrs by SRB assay; type: functional; conditions: SNB-75, 48 h
# HOP-62 = experiment: Cytotoxicity against human HOP62 cells after 48 hrs by SRB assay; type: functional; conditions: HOP-62, 48 h
# OVCAR-3 = experiment: Cytotoxicity against human OVCAR3 cells after 48 hrs by SRB assay; type: functional; conditions: OVCAR-3, 48 h
# HCC 2998 = experiment: Cytotoxicity against human HCC2998 cells after 48 hrs by SRB assay; type: functional; conditions: HCC 2998, 48 h
# SF-295 = experiment: Cytotoxicity against human SF295 cells after 48 hrs by SRB assay; type: functional; conditions: SF-295, 48 h, read-out: pGI50 (converted)
# K562 = experiment: Cytotoxicity against human K562 cells after 48 hrs by SRB assay; type: functional; conditions: K562, 48 h
# EKVX = experiment: Cytotoxicity against human EKVX cells after 48 hrs by SRB assay; type: functional
# DU-145 = experiment: Cytotoxicity against human DU145 cells after 48 hrs by SRB assay; type: functional; conditions: DU-145, 48 h
# NCI-H460 = experiment: Cytotoxicity against human NCI-H460 cells after 48 hrs by SRB assay; type: functional; conditions: NCI-H460, 48 h
# SK-OV-3 = experiment: Cytotoxicity against human SKOV3 cells after 48 hrs by SRB assay; type: functional; conditions: SK-OV-3, 48 h
# UO-31 = experiment: Cytotoxicity against human UO31 cells after 48 hrs by SRB assay; type: functional; conditions: UO-31, 48 h
# MDA-MB-435 = experiment: Cytotoxicity against human MDA-MB-435 cells after 48 hrs by SRB assay; type: functional; conditions: MDA-MB-435, 48 h
# T47D = experiment: Cytotoxicity against human T47D cells after 48 hrs by SRB assay; type: functional
# SF-268 = experiment: Cytotoxicity against human SF268 cells after 48 hrs by SRB assay; type: functional; conditions: SF-268, 48 h
# MOLT-4 = experiment: Cytotoxicity against human MOLT4 cells after 48 hrs by SRB assay; type: functional; conditions: MOLT-4, 48 h
smiles,measurement,setting,value
COc1cccc2c1C(=O)c1c(O)c3c(c(O)c1C2=O)C[C@@](O)(C(=O)CO)C[C@@H]3O[C@H]1C[C@H](N)[C@H](O)[C@H](C)O1,TGI,SK-MEL-2 [1],Active
CO[C@H](C(=O)C(C)=O)[C@@H]1Cc2cc3cc(O[C@H]4C[C@@H](O[C@H]5C[C@@H](O)[C@H](O)[C@@H](C)O5)[C@H](O)[C@@H](C)O4)c(C)c(O)c3c(O)c2C(=O)[C@H]1O[C@H]1C[C@@H](O[C@H]2C[C@@H](O)[C@H](O)[C@@H](C)O2)[C@H](O)[C@@H](C)O1,GI50,BXPC-3,300 nM
same,GI50,[2],166 nM
same,GI50,A549 [3],300 nM
same,GI50,COLO 205 [4]; read-out: pGI50 (converted),83.2 nM
same,GI50,MDA-MB-231; read-out: pGI50 (converted),240 nM
same,GI50,A549 [5],170 nM
same,GI50,COLO 205 [6],300 nM
CO[C@H](C(=O)C(C)=O)[C@@H]1Cc2cc3cc(O[C@H]4C[C@@H](O[C@H]5C[C@@H](O)[C@H](O)[C@@H](C)O5)[C@H](O)[C@@H](C)O4)c(C)c(O)c3c(O)c2C(=O)[C@H]1O[C@H]1C[C@@H](O[C@H]2C[C@@H](O[C@H]3C[C@H](O)[C@H](O)[C@@H](C)O3)[C@H](O)[C@@H](C)O2)[C@H](O)[C@@H](C)O1,GI50,NCI-H226,34.7 nM
same,GI50,Hs-578T,16.2 nM
same,GI50,UACC-257,58.9 nM
same,GI50,RXF 393,13.5 nM
same,GI50,UACC-62,13.5 nM
same,GI50,BXPC-3,300 nM
same,GI50,IGROV-1,23.4 nM
same,GI50,NCI-H23,14.8 nM
same,GI50,HL-60,17.4 nM
same,GI50,HOP-92,19.9 nM
same,GI50,MDA-MB-468,23.4 nM
same,GI50,HCT-116,14.8 nM
same,GI50,SW-620,24 nM
same,GI50,PC-3,22.9 nM
same,GI50,M14,36.3 nM
same,GI50,SK-MEL-28,20.9 nM
same,GI50,NCI-H522,19.9 nM
same,GI50,U-251,17.4 nM
same,GI50,SK-MEL-5,22.4 nM
same,GI50,Malme-3M,34.7 nM
same,GI50,[2],25.1 nM
same,GI50,SNB-19,17 nM
same,GI50,SN12C,24.6 nM
same,GI50,SK-MEL-2 [7],15.1 nM
same,GI50,ACHN,74.1 nM
same,GI50,RPMI-8226,15.8 nM
same,GI50,CAKI-1,126 nM
same,GI50,MCF7,19.9 nM
same,GI50,HCT-15,182 nM
same,GI50,BT-549,13.5 nM
same,GI50,OVCAR-5,30.9 nM
same,GI50,TK-10,85.1 nM
same,GI50,A498,47.9 nM
same,GI50,A549 [3],300 nM
same,GI50,CCRF-CEM,24 nM
same,GI50,HT-29,24.6 nM
same,GI50,LOX IMVI,13.5 nM
same,GI50,COLO 205 [4]; read-out: GI50,32 nM
same,GI50,COLO 205 [4]; read-out: pGI50 (converted),30.2 nM
same,GI50,[8],1660 nM
same,MTD,[9],4 mg/kg
same,GI50,MDA-MB-231; read-out: GI50,63 nM
same,GI50,MDA-MB-231; read-out: pGI50 (converted),66.1 nM
same,GI50,OVCAR-4,72.4 nM
same,GI50,OVCAR-8,25.7 nM
same,GI50,A549 [5],24.6 nM
same,GI50,SF-539,20.9 nM
same,GI50,SR,11.8 nM
same,GI50,COLO 205 [6],300 nM
same,GI50,KM12,12.9 nM
same,GI50,SNB-75,11 nM
same,GI50,HOP-62,16.6 nM
same,GI50,OVCAR-3,19.9 nM
same,GI50,HCC 2998,12.9 nM
same,GI50,SF-295,17 nM
same,GI50,K562,19.5 nM
same,GI50,EKVX,91.2 nM
same,GI50,DU-145,25.1 nM
same,GI50,NCI-H460,17.8 nM
same,GI50,SK-OV-3,25.1 nM
same,GI50,UO-31,126 nM
same,GI50,MDA-MB-435,25.1 nM
same,GI50,T47D,33.9 nM
same,GI50,SF-268,18.6 nM
same,GI50,MOLT-4,27.5 nM
